Data as given in paper PMC10825133, “Repurposing proteasome inhibitors for improved treatment of triple-negative breast cancer” (Cell Death Discovery, 2024).
Like-named read-outs stand apart in the source and are kept apart here. Residues, ends and D or L forms follow the SMILES beside them. *: point of attachment. Cbz = O=C(OCc1ccccc1)*

Legend:
Test in all cases: Resazurin-based cell viability assay, monotherapy drug screen
CAL-148 cells = system: CAL-148 cells; parameters: species or system human; AUC: unit not given beside the values; conditions: for AUC: area under the dose response curve, 24 h; for GRmax: drug efficacy at highest tested dose (<0 cytotoxic, 0 cytostatic, >0 partial growth inhibition); for IC50: Homo sapiens
Protocol: Eighteen pharmaceutical compounds were purchased from Selleckchem (Supplementary Table 2). Stock solutions were prepared using dimethyl sulfoxide (DMSO; Merck), physiological saline (sodium chloride 0.9%) or Milli-Q water, and stored at −80 °C. […] Matched concentration solvent vehicle controls were used for each drug concentration. The drug screens were performed in triplicate and repeated three (monotherapy) or two (combination therapy) times (Fig. 7).
The optimal seeding density per 96-well was determined for each cell line as previously described. The cells were seeded at a density of 4.0 × 10^3 to 7.5 × 10^3 (cell type dependent) in 96-well clear, flat-bottom microplates (Corning Life Sciences, Sigma-Aldrich) in 100 µl complete culture medium (Supplementary Table 1) and cultured for 24 h. Cell viability was determined using the resazurin assay in untreated cells at the time of plating (t = 0) and treated cells after 24 h drug treatment (Fig. 7). Percentage cell viability was calculated as 100% × (absorbance of treated cells – absorbance of background controls) / (absorbance of matched solvent vehicle controls – absorbance of background controls). The area under the curve (AUC), half-maximal inhibitory concentration (IC50), drug potency (GR50), and drug efficacy (GRmax) were determined for each compound using the GRmetrics (version 1.20.0) package in R. The monotherapy data were evaluated with the IDACombo (version 1.0.2) package in R to predict potential drug combinations (Table 1). SynergyFinder (version 3.2.10) package in R was used to identify synergistic drug combinations.
Eighteen pharmaceutical compounds were purchased from Selleckchem. […] The solubility of the compound was enhanced by pre-heating the solvent (lukewarm), if necessary. […] The stock solutions were stored at -80°C. […] Matched concentration solvent vehicle controls were used for each drug concentration. The drug screens were performed in triplicate and repeated three times for the monotherapies and twice for the combination treatments. The drug(s) and corresponding controls were plated in 96-well PCR plates (VWR) and stored at -20°C (Fig. 6). The drug plates were thawed, centrifuged (3000 rpm for 30s), and acclimatized to RT before the drugs were added to the cells. New drug plates were prepared for each drug screen.
Cell viability was measured daily (day 0 [plating day] to day 4) using 0.2 mg/ml resazurin solution prepared from resazurin sodium salt (Fisher Scientific) dissolved in sterile 1xPBS (ThermoFisher Scientific). Before use, the resazurin solution was brought to RT before 10 µl (10% of cell medium volume) was added to each 96-well and incubated for 4h at 37°C. […] The slope of the curve was used to determine the optimal seeding density, i.e., the highest seeding density with linear growth between days 1 and 3.
The cells were seeded at a density of 4.0x10^3 to 7.5x10^3 (cell type-dependent) in 96-well clear, flat-bottom microplates (Corning Life Sciences, Sigma-Aldrich) in 100 µl culture medium supplemented with 10% FBS and cultured for 24h. Cell viability was determined using the resazurin assay after 24h drug treatment (Fig. 6). Percentage cell viability was calculated as 100% × (absorbance of treated cells – absorbance of background controls) / (absorbance of matched solvent vehicle controls – absorbance of background controls). Normalized growth rate inhibition (GR) was assessed using the absorbance of untreated cells after the time of plating (t = 0). […] For combination treatment, the monotherapy data were evaluated with the IDACombo (version 1.0.2)[20] package in R to predict potential drug combinations (Table 1). SynergyFinder (version 3.2.10)[21] package in R was used to identify synergistic drug combinations.

BT-549 cells = system: BT-549 cells; parameters: species or system human; AUC: scale not given here; conditions: for AUC: area under the dose response curve, 24 h; for GRmax: drug efficacy at highest tested dose (<0 cytotoxic, 0 cytostatic, >0 partial growth inhibition); for IC50: Homo sapiens
Protocol: (§1) Eighteen pharmaceutical compounds were purchased from Selleckchem. […] The stock solutions were stored at -80°C. […] New drug plates were prepared for each drug screen.
(§2) To determine the optimal seeding density and ensure that the cells were in the exponential phase during the duration of the experiment (approx. 52h), each cell line (BT-549, CAL-148, HCC1806, HCC38, HCC70, MCF-10A, MCF-7, MDA-MB-436, MDA-MB-453, and MDA-MB-468) was seeded at different concentrations (1000 to 16000 cells) per 96-well, as previously described. Cell viability was measured daily (day 0 [plating day] to day 4) using 0.2 mg/ml resazurin solution prepared from resazurin sodium salt (Fisher Scientific) dissolved in sterile 1xPBS (ThermoFisher Scientific). Before use, the resazurin solution was brought to RT before 10 µl (10% of cell medium volume) was added to each 96-well and incubated for 4h at 37°C. The absorbance was measured with a 560 nm excitation filter and a 615 nm emission filter in a Wallac 1420 VICTOR2™ microplate reader (Perkin Elmer). The slope of the curve was used to determine the optimal seeding density, i.e., the highest seeding density with linear growth between days 1 and 3.

HCC1806 cells = system: HCC1806 cells; parameters: species or system human; AUC: scale not given here; conditions: for AUC: area under the dose response curve, 24 h; for GRmax: drug efficacy at highest tested dose (<0 cytotoxic, 0 cytostatic, >0 partial growth inhibition); for IC50: Homo sapiens
Protocol: as §1, §2

HCC38 cells = system: HCC38 cells; parameters: species or system human; AUC: scale not given here; conditions: for AUC: area under the dose response curve, 24 h; for GRmax: drug efficacy at highest tested dose (<0 cytotoxic, 0 cytostatic, >0 partial growth inhibition); for IC50: Homo sapiens
Protocol: as §1, §2

HCC70 cells = system: HCC70 cells; parameters: species or system human; AUC: scale not given here; conditions: for AUC: area under the dose response curve, 24 h; for GRmax: drug efficacy at highest tested dose (<0 cytotoxic, 0 cytostatic, >0 partial growth inhibition); for IC50: Homo sapiens
Protocol: as §1, §2

MCF-10A cells = system: MCF-10A cells; parameters: species or system human; AUC: scale not given here; conditions: for IC50: Homo sapiens; for AUC: area under the dose response curve
Protocol: as §1, §2

MCF-7 cells = system: MCF-7 cells; parameters: species or system human; AUC: scale not given here; conditions: for IC50: Homo sapiens; for AUC: area under the dose response curve, 24 h; for GRmax: drug efficacy at highest tested dose (<0 cytotoxic, 0 cytostatic, >0 partial growth inhibition)
Protocol: as §1, §2

MDA-MB-468 cells = system: MDA-MB-468 cells; parameters: species or system human; AUC: scale not given here; conditions: for IC50: Homo sapiens; for AUC: area under the dose response curve, 24 h
Protocol: as §1, §2

[1] = CAL-148, growth rate inhibition concentration at GR(c) = 0.5, 24 h, read-out: GR50 (the source's name)
[2] = HCC1806, growth rate inhibition concentration at GR(c) = 0.5, 24 h, read-out: GR50 (the source's name)
[3] = HCC38, 24 h drug treatment, read-out: IC50
[4] = HCC38, growth rate inhibition concentration at GR(c) = 0.5, 24 h, read-out: GR50 (the source's name)
[5] = HCC70, growth rate inhibition concentration at GR(c) = 0.5, 24 h, read-out: GR50 (the source's name)
[6] = 24 h drug treatment, read-out: IC50
[7] = growth rate inhibition concentration at GR(c) = 0.5, 24 h, read-out: GR50 (the source's name)
[8] = MCF7, MCF-7, growth rate inhibition concentration at GR(c) = 0.5, 24 h, read-out: GR50 (the source's name)
[9] = MDA-MB-468, growth rate inhibition concentration at GR(c) = 0.5, 24 h, read-out: GR50 (the source's name)

| SMILES | AUC (CAL-148 cells; CAL-148) | GRmax (CAL-148 cells; CAL-148) | AUC (BT-549 cells; BT-549) | GRmax (BT-549 cells; BT-549) | AUC (HCC1806 cells; HCC1806) | GRmax (HCC1806 cells; HCC1806) | AUC (HCC38 cells; HCC38) | GRmax (HCC38 cells; HCC38) | AUC (HCC70 cells; HCC70) | GRmax (HCC70 cells; HCC70) | AUC (MCF-10A cells; 24 h) | AUC (MCF-7 cells; MCF-7) | GRmax (MCF-7 cells; MCF-7) | AUC (MDA-MB-468 cells; MDA-MB-468) | IC50 (CAL-148 cells; [1]) | IC50 (HCC1806 cells; [2]) | IC50 (HCC38 cells; [3]) | IC50 (HCC38 cells; [4]) | IC50 (HCC70 cells; [5]) | IC50 (MCF-10A cells; [6]) | further results |
| --- | --- | --- | --- | --- | --- | --- | --- | --- | --- | --- | --- | --- | --- | --- | --- | --- | --- | --- | --- | --- | --- |
| CC(C)C[C@@H](C=O)NC(=O)[C@H](CC(C)C)NC(=O)[C@H](CC(C)C)NC(=O)OCc1ccccc1 [MG 132, MG-132] (Cbz-Leu-Leu-Leu-aldehyde) | 0.89 | 0.22 | 0.83 | 0.26 | 0.82 | 0.31 | 0.71 | −0.98 | 0.87 | −0.40 | 0.78 | 0.87 | −0.32 | 0.81 | – | – | – | – | – | – | IC50 (CAL-148 cells; CAL-148, 24 h, read-out: GR50 (µM)): 3.4 µM; IC50 (BT-549 cells; BT-549, 24 h): 4.3 µM; IC50 (BT-549 cells; BT-549, 24 h, read-out: GR50 (µM)): 1.4 µM; IC50 (HCC1806 cells; HCC1806, 24 h): 3.1 µM; IC50 (HCC1806 cells; HCC1806, 24 h, read-out: GR50 (µM)): 2.5 µM; IC50 (HCC38 cells; HCC38, 24 h): 0.57 µM; IC50 (HCC38 cells; HCC38, 24 h, read-out: GR50 (µM)): 0.37 µM; IC50 (HCC70 cells; HCC70, 24 h): 3.7 µM; IC50 (HCC70 cells; HCC70, 24 h, read-out: GR50 (µM)): 2.1 µM; IC50 (MCF-10A cells; 24 h): 0.94 µM; IC50 (MCF-10A cells; 24 h, read-out: GR50 (µM)): 0.4 µM; IC50 (MCF-7 cells; MCF7, 24 h, read-out: GR50 (µM)): 0.57 µM; IC50 (MDA-MB-468 cells; MDA-MB-468, 24 h): 1.4 µM; IC50 (MDA-MB-468 cells; MDA-MB-468, 24 h, read-out: GR50 (µM)): 0.61 µM |
| COC[C@H](NC(=O)c1cnc(C)s1)C(=O)N[C@@H](COC)C(=O)N[C@@H](Cc1ccccc1)C(=O)[C@@]1(C)CO1 [Oprozomib] | 0.90 | 0.14 | 0.81 | 0.38 | 0.85 | 0.42 | 0.73 | −0.98 | 0.89 | −0.10 | 0.79 | 0.88 | −0.45 | 0.76 | 1.1 µM | 6 µM | 0.68 µM | 0.33 µM | 3.7 µM | 2 µM | IC50 (BT-549 cells; BT-549, growth rate inhibition concentration at GR(c) = 0.5, 24 h, read-out: GR50 (the source's name)): 0.94 µM; IC50 (HCC1806 cells; HCC1806, 24 h drug treatment, read-out: IC50): 6 µM; IC50 (HCC70 cells; HCC70, 24 h drug treatment, read-out: IC50): 7.6 µM; IC50 (MCF-10A cells; [7]): 0.36 µM; IC50 (MCF-7 cells; [8]): 0.27 µM; IC50 (MDA-MB-468 cells; MDA-MB-468, 24 h drug treatment, read-out: IC50): 3.2 µM; IC50 (MDA-MB-468 cells; [9]): 0.39 µM |
| CC(=O)O[C@H]1C(=O)[C@@]2(C)[C@H]([C@H](OC(=O)c3ccccc3)[C@]3(O)C[C@H](OC(=O)[C@H](O)[C@@H](NC(=O)c4ccccc4)c4ccccc4)C(C)=C1C3(C)C)[C@]1(OC(C)=O)CO[C@@H]1C[C@@H]2O [Paclitaxel] | 0.92 | 0.51 | 0.87 | 0.58 | 0.72 | 0.51 | 0.81 | −0.50 | 0.86 | 0.46 | 0.73 | 0.79 | −0.56 | 0.81 | 1.1 µM | 0.84 µM | 7.1 µM | 0.11 µM | 0.38 µM | 0.86 µM | IC50 (MCF-10A cells; [7]): 0.098 µM; IC50 (MCF-7 cells; [8]): 0.041 µM; IC50 (MDA-MB-468 cells; [9]): 1.4 µM |
